For series [1] the following is noted: isolated from a Cyanobacteria sp.; cited from earlier work.
Another series has as its system S. aureus ATCC 25923. It counts as cell-based, Staphylococcus aureus. Particulars: purified SacP23, medium MHA, clear zone, 30°C 12–18 h.
Another series relates to S. aureus MRSA 344/2-24. It counts as cell-based, Staphylococcus aureus.
The next series concerns B. subtilis BS34A. It counts as cell-based, Bacillus subtilis.
Another series has as its system B. cereus ATCC 10876. The format is cell-based, Bacillus cereus. Particulars: purified SacP23, medium MHA.
Series [2] deals with L. monocytogenes192/1-2 ACM 3173. It counts as cell-based, Listeria monocytogenes. The note with it: purified SacP23; L. monocytogenes 192/1-2 ACM 3173; medium MHA.
Another series relates to C. perfringens EHE-NE18. The format is cell-based, Clostridium perfringens. The note with it: purified SacP23, medium MHA.
A further series concerns L. plantarum A6. It counts as cell-based, Lactobacillus plantarum. Particulars: purified SacP23, medium deMan, Rogosa and Sharpe (MRS).
For the next series, the system named is E. faecalis (VRE) 345/19. The format is cell-based, Enterococcus faecalis. Particulars: purified SacP23, medium MRS.
Series [3] deals with S. Enteritidis ATCC 13076. The format is cell-based, Salmonella Enteritidis. Particulars: purified SacP23, medium MHA.
For another series, the system named is E. coli ATCC 25922. The format is cell-based. The note with it: purified SacP23, medium MHA.
For the next series, the system named is C. jejuni ATCC 81116. It counts as cell-based, Campylobacter jejuni. Particulars: purified SacP23, medium MHA + 5% sheep blood.
The test system of another series is pronase E. The note with it: pronase E 1 mg ml^−1, 1 h; spot-on-lawn versus untreated sample.
The next series deals with proteinase K (Parengyodontium album, UniProt P06873). The note with it: proteinase K 1 mg ml^−1, 1 h; spot-on-lawn versus untreated sample.
The subject of a further series is trypsin. Particulars: trypsin 1 mg ml^−1, 1 h; spot-on-lawn versus untreated sample.
The test system of the next series is lipase. The note with it: lipase 1 mg ml^−1, 1 h; spot-on-lawn versus untreated sample.
The subject of a further series is catalase. The note with it: catalase 1 mg ml^−1, 1 h; spot-on-lawn versus untreated sample.
Series [4] deals with many Gram-negative bacteria including colistin-resistant Klebsiella pneumonia, E. coli, and Campylobacter species. The note with it: cited from earlier work.
Series [5] relates to Pseudomonas aeruginosa and K. pneumonia. Particulars: cited from earlier work.
Series [6] concerns Gram-negative and Gram-positive pathogens including antibiotic-resistant strains of E. coli, P. aeruginosa, Acinetobacter baumannii, K. pneumoniae, S. aureus …. The note with it: cited from earlier work.
Series [7] concerns many phytopathogens and Gram-positive bacteria. Particulars: cited from earlier work.
In series [8] the test system is Gram-positive and Gram-negative bacteria. The note with it: cited from earlier work. From the text:
Further studies need to be undertaken to fully assess the potency of the SacP23 by performing minimum inhibitory concentration tests for a range of sensitive bacteria. […] This indicates the diversity in antimicrobial spectra of sactipeptide-type ...

proteinase K, sequence (P06873 106-384): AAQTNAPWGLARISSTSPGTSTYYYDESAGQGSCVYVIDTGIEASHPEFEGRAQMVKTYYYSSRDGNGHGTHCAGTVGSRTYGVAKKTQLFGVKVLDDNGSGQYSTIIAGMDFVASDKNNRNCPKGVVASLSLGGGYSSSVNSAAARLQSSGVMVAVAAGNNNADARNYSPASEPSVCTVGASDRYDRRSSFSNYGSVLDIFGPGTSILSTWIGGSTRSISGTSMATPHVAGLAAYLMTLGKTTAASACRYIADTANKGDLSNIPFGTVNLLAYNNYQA

For landornamide A, the antiviral activity entry in [1] was “antiviral activity”.

On to “MRKLVKRSTNVGDTIEAFGCGCSCYCPCSCYCAGSLTRSSNTSRESDGSYRRDNGTGIGN [SacP23]”, for which the antimicrobial activity entry in the series on S. aureus ATCC 25923 is listed as “+”; in the series with S. aureus MRSA 344/2-24 (purified SacP23, S. aureus MRSA 344/2-24, medium MHA, clear zone, 30°C 12–18 h), “+”; in the series on B. subtilis BS34A (purified SacP23, B. subtilis BS34A, medium MHA), “+”; with B. cereus ATCC 10876, “+”; in [2], “−”; in the series with C. perfringens EHE-NE18, “−”. In addition, the antimicrobial activity entry is “−” with L. plantarum A6; “+” with E. faecalis (VRE) 345/19; “−” in series [3]; “−” with E. coli ATCC 25922; “−” with C. jejuni ATCC 81116. In addition, the “antimicrobial activity against an MRSA isolate” value in the series on S. aureus MRSA 344/2-24 (heterologously expressed recombinant SacP23, result in words) is reported as “strong activity”. The “sensitivity of the base B. subtilis expression strain” value in the series with B. subtilis BS34A (recombinant SacP23, result in words) is given as “sensitive”. In addition, in the series on pronase E, the “enzymatic stability: remaining antimicrobial activity after pronase E” value is “sensitive”. Also, the “enzymatic stability: remaining antimicrobial activity after proteinase K” value on proteinase K was “sensitive”. The “enzymatic stability: remaining antimicrobial activity after trypsin” value in the series on trypsin is reported as “sensitive”. The “enzymatic stability: remaining antimicrobial activity after lipase” value in the series on lipase is listed as “resistant”. The “enzymatic stability: remaining antimicrobial activity after catalase” value in the series on catalase is “resistant”.

Consider Tridecaptin, for which the “activity against Gram-negative bacteria” value in [4] is reported as “strong activity”.

With Polymyxin, the growth suppression entry in [5] is on record as “suppress the growth”.

Consider paenibacterin, for which the antimicrobial activity result in series [6] was “antimicrobial activity”.

Regarding fusaricidin B, the inhibitory activity entry in [7] is “inhibitory activity”.

In the case of “subtilosin A (cyclo(NKGCATCSIGAACLVDGPIPDFEIAGATGLFGLWG); ends not checked; also: sactipeptide thioether linkages between Cys and alpha-carbons, positions not given here; UniProt O07623 9-43, looked up)”, the antimicrobial spectrum entry in series [8] is “antimicrobial activity extending to both Gram-positive and Gram-negative bacteria”.
